The target of data set [1] is T1, Gastric inhibitory polypeptide receptor (Homo sapiens, UniProt P48546).
T1 sequence (P48546 whole entry): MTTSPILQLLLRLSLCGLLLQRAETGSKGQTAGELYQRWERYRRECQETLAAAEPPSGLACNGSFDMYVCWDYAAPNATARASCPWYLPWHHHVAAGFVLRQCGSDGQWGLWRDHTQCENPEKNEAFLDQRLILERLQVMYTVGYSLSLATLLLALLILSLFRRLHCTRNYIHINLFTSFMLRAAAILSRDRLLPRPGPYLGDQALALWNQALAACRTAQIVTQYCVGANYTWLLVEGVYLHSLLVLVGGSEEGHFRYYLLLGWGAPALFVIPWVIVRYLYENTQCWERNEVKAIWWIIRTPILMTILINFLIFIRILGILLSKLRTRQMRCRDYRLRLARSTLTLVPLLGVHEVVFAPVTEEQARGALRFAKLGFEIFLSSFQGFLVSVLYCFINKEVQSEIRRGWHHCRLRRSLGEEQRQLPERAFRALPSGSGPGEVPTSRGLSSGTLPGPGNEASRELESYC
The experiment in a line: Binding affinity against human GIP.

The species named for data set [2] is Homo sapiens. Briefly: Selectivity for human glucagon receptor over human GIP.
In data set [3] the target is T2, Glucagon receptor (Homo sapiens, UniProt P47871). Briefly: Antagonist activity against human GCGR expressed in CHO cells assessed as glucagon-induced cAMP accumulation. The data set is classed as functional, cell-based. For orientation: Cyclic AMP is a second messenger, typically raised through Gs and lowered through Gi signalling.
T2 sequence (P47871 whole entry): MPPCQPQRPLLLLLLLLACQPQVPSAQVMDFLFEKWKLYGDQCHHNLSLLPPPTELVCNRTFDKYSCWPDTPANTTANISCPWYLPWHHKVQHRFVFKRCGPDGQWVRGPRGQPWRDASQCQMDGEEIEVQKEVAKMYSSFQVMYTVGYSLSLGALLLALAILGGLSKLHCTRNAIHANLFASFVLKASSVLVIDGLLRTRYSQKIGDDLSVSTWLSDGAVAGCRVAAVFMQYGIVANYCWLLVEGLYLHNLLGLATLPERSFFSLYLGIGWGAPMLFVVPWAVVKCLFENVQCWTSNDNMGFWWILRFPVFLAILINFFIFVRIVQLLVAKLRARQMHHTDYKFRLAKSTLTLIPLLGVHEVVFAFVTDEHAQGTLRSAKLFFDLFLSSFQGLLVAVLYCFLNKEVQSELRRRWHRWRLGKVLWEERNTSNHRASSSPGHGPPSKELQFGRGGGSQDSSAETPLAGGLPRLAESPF
Data set [4] is filed under the species Homo sapiens. Briefly: Selectivity for human glucagon receptor over human GLP1.
The target of data set [5] is T2, Glucagon receptor. The experiment in a line: Displacement of [125I]glucagon from human GCGR expressed in CHO cells. The data set is classed as cell-based. Background: Displacement assays read how much labelled ligand stays bound in the presence of the test substance.
The target in data set [6] is Glucagon-like peptide 1 receptor, Homo sapiens (UniProt P43220). The experiment in a line: Binding affinity against human GLP1.
Chain of Glucagon-like peptide 1 receptor, Homo sapiens (P43220 whole entry, looked up): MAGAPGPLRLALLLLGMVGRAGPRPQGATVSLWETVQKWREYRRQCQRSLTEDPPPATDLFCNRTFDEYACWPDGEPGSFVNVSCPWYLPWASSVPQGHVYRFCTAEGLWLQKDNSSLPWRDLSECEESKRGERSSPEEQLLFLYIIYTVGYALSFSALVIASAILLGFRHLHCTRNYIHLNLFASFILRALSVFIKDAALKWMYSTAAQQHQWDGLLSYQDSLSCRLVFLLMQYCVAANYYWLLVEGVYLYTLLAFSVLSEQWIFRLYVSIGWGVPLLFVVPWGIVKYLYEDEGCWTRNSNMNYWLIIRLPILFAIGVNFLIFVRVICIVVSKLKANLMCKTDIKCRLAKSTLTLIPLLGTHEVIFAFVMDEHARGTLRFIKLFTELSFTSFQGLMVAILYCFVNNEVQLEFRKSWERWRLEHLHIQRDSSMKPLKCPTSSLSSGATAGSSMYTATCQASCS
Data set [7] is described as follows: Clearance in rhesus monkey at 0.5 mg/kg, iv and 2 mg/kg, po. Particulars: in vivo. It counts as ADME, organism-based, Macaca mulatta.
The nature of data set [8]: Half life in rat at 1 mg/kg, iv and 2 mg/kg, po. Particulars: in vivo. It counts as ADME, organism-based.
Data set [9] is described as follows: Half life in rhesus monkey at 0.5 mg/kg, iv and 2 mg/kg, po. Particulars: in vivo. It counts as ADME, organism-based, Macaca mulatta.
Data set [10] is described as follows: Oral bioavailability in rat at 2 mg/kg. It counts as ADME, organism-based. To be noted: in vivo.
A further data set concerns the target Cytochrome P450 3A4 (Homo sapiens, UniProt P08684). The experiment in a line: Inhibition of CYP3A4. It counts as ADME.
The target in data set [11] is Voltage-gated inwardly rectifying potassium channel KCNH2 (Homo sapiens, UniProt Q12809). Briefly: Inhibition of hERG potassium channel. The data set is classed as toxicity.
Chain of Voltage-gated inwardly rectifying potassium channel KCNH2 (Q12809 whole entry): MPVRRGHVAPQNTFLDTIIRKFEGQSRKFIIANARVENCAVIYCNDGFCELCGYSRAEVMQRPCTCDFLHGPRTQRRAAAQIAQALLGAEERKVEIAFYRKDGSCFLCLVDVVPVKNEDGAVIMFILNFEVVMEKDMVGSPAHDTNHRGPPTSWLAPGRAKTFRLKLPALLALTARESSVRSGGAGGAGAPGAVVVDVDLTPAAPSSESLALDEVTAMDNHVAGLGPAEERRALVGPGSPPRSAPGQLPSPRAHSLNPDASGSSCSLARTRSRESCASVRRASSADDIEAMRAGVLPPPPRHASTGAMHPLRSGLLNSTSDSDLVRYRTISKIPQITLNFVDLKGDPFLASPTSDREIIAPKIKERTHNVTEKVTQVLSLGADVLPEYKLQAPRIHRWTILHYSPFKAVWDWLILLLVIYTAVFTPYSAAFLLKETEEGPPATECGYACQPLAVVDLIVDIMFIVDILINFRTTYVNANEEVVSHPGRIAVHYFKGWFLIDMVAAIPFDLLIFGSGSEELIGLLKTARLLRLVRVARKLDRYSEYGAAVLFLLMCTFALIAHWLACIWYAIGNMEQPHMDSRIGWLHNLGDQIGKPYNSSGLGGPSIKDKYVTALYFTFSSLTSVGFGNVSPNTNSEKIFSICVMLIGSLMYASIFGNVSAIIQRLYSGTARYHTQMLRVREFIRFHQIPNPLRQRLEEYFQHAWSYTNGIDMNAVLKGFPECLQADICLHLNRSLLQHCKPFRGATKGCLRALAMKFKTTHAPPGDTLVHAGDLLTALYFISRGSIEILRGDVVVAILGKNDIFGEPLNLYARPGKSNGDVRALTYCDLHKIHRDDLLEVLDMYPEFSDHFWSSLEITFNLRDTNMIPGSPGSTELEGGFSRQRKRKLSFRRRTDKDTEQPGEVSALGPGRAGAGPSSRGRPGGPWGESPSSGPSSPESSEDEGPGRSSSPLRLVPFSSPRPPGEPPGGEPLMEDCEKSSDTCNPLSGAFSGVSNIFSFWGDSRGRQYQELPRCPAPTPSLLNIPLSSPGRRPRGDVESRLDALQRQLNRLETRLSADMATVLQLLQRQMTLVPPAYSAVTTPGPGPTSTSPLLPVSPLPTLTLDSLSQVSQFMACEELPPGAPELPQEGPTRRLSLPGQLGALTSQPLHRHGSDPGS
The target in another data set is Cytochrome P450 2C9 (Homo sapiens, UniProt P11712). The experiment in a line: Inhibition of CYP2C9. It counts as ADME.
Chain of Cytochrome P450 2C9 (P11712 whole entry): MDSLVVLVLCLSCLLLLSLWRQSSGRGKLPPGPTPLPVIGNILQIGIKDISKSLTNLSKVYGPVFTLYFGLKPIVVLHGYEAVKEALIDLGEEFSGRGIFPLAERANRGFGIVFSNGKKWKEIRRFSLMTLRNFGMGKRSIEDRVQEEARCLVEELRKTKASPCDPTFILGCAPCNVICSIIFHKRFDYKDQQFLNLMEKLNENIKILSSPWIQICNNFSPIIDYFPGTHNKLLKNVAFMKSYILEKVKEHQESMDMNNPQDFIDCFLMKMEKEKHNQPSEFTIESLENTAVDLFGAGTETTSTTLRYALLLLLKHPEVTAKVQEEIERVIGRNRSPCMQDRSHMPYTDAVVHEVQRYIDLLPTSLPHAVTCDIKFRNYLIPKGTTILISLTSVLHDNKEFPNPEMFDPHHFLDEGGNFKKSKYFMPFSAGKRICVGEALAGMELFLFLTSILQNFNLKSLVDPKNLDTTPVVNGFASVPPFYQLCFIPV
Data set [12] in a line: Oral bioavailability in dog at 1 mg/kg. It counts as ADME, organism-based, Canis lupus familiaris. To be noted: in vivo.
Data set [13] in a line: Clearance in dog at 0.25 mg/kg, iv and 1 mg/kg, po. It counts as ADME, organism-based, Canis lupus familiaris. To be noted: in vivo.
Data set [14] concerns Rhesus monkey. The experiment in a line: Inhibition of glucagon-dependent glucose excursion in rhesus monkey at 3 mg/kg, po. It counts as functional, organism-based. The arrangement: dose 3 mg/kg. Particulars: Macaca mulatta.
The subject of data set [15] is Mus musculus. Briefly: Reduction of glucose level in po dosed fat diet-induced diabetic mouse transgenic model expressing human glucagon receptor administered for 10 days. The data set is classed as functional, organism-based.
Data set [16] can be described thus: Volume of distribution at steady state in mouse at 1 mg/kg, iv and 2 mg/kg, po. The data set is classed as ADME, organism-based. To be noted: in vivo, read-out: Vdss.
For data set [17], the system named is Rhesus monkey. The experiment in a line: Inhibition of glucagon-dependent glucose excursion in rhesus monkey at 10 mg/kg, po. The arrangement: dose 10 mg/kg. To be noted: Macaca mulatta. The data set is classed as functional, organism-based.
Data set [18] is described as follows: Oral bioavailability in mouse at 2 mg/kg. It counts as ADME, organism-based. To be noted: in vivo.
A short description of data set [19]: Half life in mouse at 1 mg/kg, iv and 2 mg/kg, po. It counts as ADME, organism-based. To be noted: in vivo.
A further data set concerns the target Cytochrome P450 2D6 (Homo sapiens, UniProt P10635). Briefly: Inhibition of CYP2D6. The data set is classed as ADME.
The nature of data set [20]: Volume of distribution at steady state in dog at 0.25 mg/kg, iv and 1 mg/kg, po. The data set is classed as ADME, organism-based, Canis lupus familiaris. Particulars: in vivo, read-out: Vdss.
Data set [21] in a line: Clearance in mouse at 1 mg/kg, iv and 2 mg/kg, po. The data set is classed as ADME, organism-based. To be noted: in vivo.
The nature of data set [22]: Clearance in rat at 1 mg/kg, iv and 2 mg/kg, po. It counts as ADME, organism-based. Particulars: in vivo.
A short description of data set [23]: Volume of distribution at steady state in rhesus monkey at 0.5 mg/kg, iv and 2 mg/kg, po. It counts as ADME, organism-based, Macaca mulatta. To be noted: in vivo, read-out: Vdss.
Data set [24] in a line: Oral bioavailability in rhesus monkey at 2 mg/kg. Particulars: in vivo. It counts as ADME, organism-based, Macaca mulatta.
A short description of data set [25]: Antagonist activity against rhesus monkey glucagon receptor assessed as cAMP accumulation. It counts as functional, Macaca mulatta.
In data set [26] the test system is Mus musculus. The experiment in a line: Inhibition of glucagon-dependent glucose excursion in transgenic mouse expressing human glucagon receptor at 3 to 30 mg/kg, po. It counts as functional, organism-based.
A short description of data set [27]: Volume of distribution at steady state in rat at 1 mg/kg, iv and 2 mg/kg, po. To be noted: in vivo, read-out: Vdss. It counts as ADME, organism-based.
Data set [28] is described as follows: Half life in dog at 0.25 mg/kg, iv and 1 mg/kg, po. It counts as ADME, organism-based, Canis lupus familiaris. To be noted: in vivo.

Calls of active or inactive are those of the source. The calls are words filed in the database; no cut-off is given here.

Chain of Cytochrome P450 3A4 (P08684 whole entry): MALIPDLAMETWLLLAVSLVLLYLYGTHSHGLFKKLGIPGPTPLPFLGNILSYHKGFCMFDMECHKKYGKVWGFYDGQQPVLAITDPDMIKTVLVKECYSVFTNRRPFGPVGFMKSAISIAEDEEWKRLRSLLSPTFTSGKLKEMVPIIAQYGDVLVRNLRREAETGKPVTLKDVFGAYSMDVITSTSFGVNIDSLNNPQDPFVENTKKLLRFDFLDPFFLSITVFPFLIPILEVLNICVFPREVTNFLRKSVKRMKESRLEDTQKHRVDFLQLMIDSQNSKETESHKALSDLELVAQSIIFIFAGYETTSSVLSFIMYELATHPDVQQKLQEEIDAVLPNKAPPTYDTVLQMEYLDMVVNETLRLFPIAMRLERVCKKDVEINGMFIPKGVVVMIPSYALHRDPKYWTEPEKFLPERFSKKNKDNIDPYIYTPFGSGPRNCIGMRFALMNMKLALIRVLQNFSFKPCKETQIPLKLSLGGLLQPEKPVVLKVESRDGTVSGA
Chain of Cytochrome P450 2D6 (P10635 whole entry): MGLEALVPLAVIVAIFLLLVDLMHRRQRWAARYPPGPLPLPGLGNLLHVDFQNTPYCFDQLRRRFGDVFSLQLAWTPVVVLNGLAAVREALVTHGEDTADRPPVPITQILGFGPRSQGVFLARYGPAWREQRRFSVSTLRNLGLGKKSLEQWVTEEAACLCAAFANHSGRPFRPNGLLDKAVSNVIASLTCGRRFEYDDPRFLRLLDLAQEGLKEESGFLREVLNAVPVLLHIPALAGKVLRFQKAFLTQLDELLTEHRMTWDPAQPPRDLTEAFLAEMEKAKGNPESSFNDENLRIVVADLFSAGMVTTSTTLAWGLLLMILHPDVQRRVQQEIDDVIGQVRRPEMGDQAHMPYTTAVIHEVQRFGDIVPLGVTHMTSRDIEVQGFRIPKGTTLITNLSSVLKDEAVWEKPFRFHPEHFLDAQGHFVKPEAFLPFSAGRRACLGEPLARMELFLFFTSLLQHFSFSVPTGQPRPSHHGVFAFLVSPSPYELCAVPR

For `COc1ccc2nc(N(Cc3ccc(C(=O)Nc4nnn[nH]4)cc3)[C@H]3CC[C@H](C(C)(C)C)CC3)n(C)c2c1`, the values for the IC50 (in data set [1]; at Glucagon receptor [3]; at Glucagon receptor [5]) were greater than 1000 nM, 213 nM and 4 nM, respectively. In addition, the Selectivity ratio in the data set filed under Homo sapiens [2] and in the data set filed under Homo sapiens [4] was greater than 50 in each case.

Regarding `Cc1cc2nc(N(Cc3ccc(C(=O)Nc4nnn[nH]4)cc3)[C@H]3CC[C@H](C(C)(C)C)CC3)n(C)c2cc1C`, the figures for the IC50 (in data set [1]; at Glucagon receptor [3]; on Glucagon receptor [5]) were greater than 10000 nM, 18 nM and 6 nM, respectively. Moreover, the Selectivity ratio in the data set filed under Homo sapiens [2] and in the data set listed under Homo sapiens [4] was greater than 50 throughout.

`Cc1ccc2[nH]c(N(Cc3ccc(C(=O)Nc4nnn[nH]4)cc3)c3ccc(Oc4ccc(Cl)cc4)c(Cl)c3)nc2c1`: the IC50 was greater than 1000 nM on Glucagon receptor [3] and 13 nM at Glucagon receptor [5].

Regarding `Cn1c(N(Cc2ccc(C(=O)Nc3nnn[nH]3)cc2)[C@H]2CC[C@H](C(C)(C)C)CC2)nc2cc(O)ccc21`, the IC50 in data set [1] was greater than 1000 nM; on Glucagon receptor [3], greater than 1000 nM; on Glucagon receptor [5] it was 2 nM. Further, the Selectivity ratio in the data set listed under Homo sapiens [2] and in the data set filed under Homo sapiens [4] was greater than 50 in each case.

`CCCn1c(N(Cc2ccc(C(=O)Nc3nnn[nH]3)cc2)[C@H]2CC[C@H](C(C)(C)C)CC2)nc2ccccc21`: the IC50 at Glucagon receptor [5] worked out at 24 nM.

As to `CCCOc1ccc2nc(N(Cc3ccc(C(=O)Nc4nnn[nH]4)cc3)[C@H]3CC[C@H](C(C)(C)C)CC3)n(C)c2c1`, the 50% inhibitory concentration (IC50) in [1] is 4900 nM; at Glucagon receptor [3], 8 nM; in [6], 5000 nM; at Glucagon receptor [5] it was 1 nM. Moreover, the Selectivity ratio in the data set listed under Homo sapiens [2] and in the data set listed under Homo sapiens [4] was greater than 50 throughout.

Consider `Cn1c(N(Cc2ccc(C(=O)Nc3nnn[nH]3)cc2)[C@H]2CC[C@H](C(C)(C)C)CC2)nc2cc(C(F)(F)F)ccc21`, for which the clearance in [7] worked out at 16 mL/min/kg; in [13], 3.8 mL/min/kg; in data set [21], 4 mL/min/kg; in data set [22] it was 12 mL/min/kg. Further, the half-life was 1.6 h in data set [8], 2.4 h in [9], 1.9 h in [19] and 2.1 h in [28]. Moreover, the bioavailability in [10] was determined as 5%; in data set [12] it was 27%; in [18] it was 2%; in [24] it was 23%. For the same compound, the half-inhibitory concentration (IC50) against Cytochrome P450 3A4 is greater than 10000 nM; in data set [1], 6000 nM; in [11], greater than 10000 nM; against Cytochrome P450 2C9 it was greater than 10000 nM; on Glucagon receptor [3] it was 62 nM; on Cytochrome P450 2D6 it was greater than 10000 nM. In addition, the results for the IC50 (in data set [6]; on Glucagon receptor [5]; in data set [25]) were 6800 nM, 11 nM and 111 nM, respectively. Moreover, the Selectivity ratio in the data set filed under Homo sapiens [2] and in the data set filed under Homo sapiens [4] was greater than 50 throughout. Further, the result with Rhesus monkey [14], in the data set on Rhesus monkey [17] and with Mus musculus [26] was Active. Also, the Activity result in the data set on Mus musculus [15] was “Dose-dependent effect”. The Vd in [16] was found to be 0.33 L/kg; in data set [20], 0.5 L/kg; in data set [23] it was 0.8 L/kg; in [27] it was 0.74 L/kg.

Take `Cc1ccc2[nH]c(N(Cc3ccc(C(=O)Nc4nnn[nH]4)cc3)[C@H]3CC[C@H](C(C)(C)C)CC3)nc2c1`: the concentration for half-maximal inhibition (IC50) was greater than 1000 nM on Glucagon receptor [3] and 10 nM at Glucagon receptor [5].

For the compound `Cn1c(N(Cc2ccc(C(=O)Nc3nnn[nH]3)cc2)c2ccc(C(C)(C)C)cc2)nc2ccccc21`, the IC50 at Glucagon receptor [3] was 810 nM; at Glucagon receptor [5] it was 31 nM.

In turn, `CC(C)(C)[C@H]1CC[C@@]2(CCN(c3ccc(OC(F)(F)F)cc3)C(=O)N2Cc2ccc(C(=O)Nc3nnn[nH]3)cc2)CC1` came in with an IC50 on Glucagon receptor [5] of 32 nM.

For the compound `COc1ccc2c(c1)nc(N(Cc1ccc(C(=O)Nc3nnn[nH]3)cc1)[C@H]1CC[C@H](C(C)(C)C)CC1)n2C`, the IC50 was 2500 nM in data set [1], 38 nM on Glucagon receptor [3], 5900 nM in [6] and 4 nM at Glucagon receptor [5]. Further, the Selectivity ratio in the data set listed under Homo sapiens [2] and in the data set listed under Homo sapiens [4] was greater than 50 in each case.

As to `CCOc1ccc2c(c1)nc(N(Cc1ccc(C(=O)Nc3nnn[nH]3)cc1)[C@H]1CC[C@H](C(C)(C)C)CC1)n2C`, the 50% inhibitory concentration (IC50) in data set [1] turned out to be 2800 nM; at Glucagon receptor [3], 22 nM; in [6], 7600 nM; at Glucagon receptor [5] it was 2 nM. For the same compound, the Selectivity ratio in the data set filed under Homo sapiens [2] and in the data set filed under Homo sapiens [4] was greater than 50 in each case.

In the case of `Cn1c(N(Cc2ccc(C(=O)Nc3nnn[nH]3)cc2)[C@H]2CC[C@H](C(C)(C)C)CC2)nc2cc(OC3CCCC3)ccc21`, the half-life in data set [8] was 2.9 h; in [19] it was 3.2 h. In addition, the bioavailability in data set [10] came to 5%; in [18] it was 2%. In addition, the half-inhibitory concentration (IC50) in data set [1] amounted to 2000 nM; on Glucagon receptor [3], 9 nM; in data set [6], 5000 nM; on Glucagon receptor [5], 1 nM. The Selectivity ratio in the data set filed under Homo sapiens [2] and in the data set listed under Homo sapiens [4] was greater than 50 throughout. The Vd in data set [16] was found to be 0.5 L/kg; in [27] it was 0.6 L/kg. Besides, the clearance in data set [21] was 10 mL/min/kg; in data set [22], 13 mL/min/kg.

The term IC50 denotes the concentration needed to halve the response being measured. As usually defined, the half-life is the time in which the quantity being followed falls by half. By bioavailability is commonly meant dose-corrected exposure relative to a reference, in per cent.
